The values below are quoted from earlier work in patent US5585244A, “Detection of retinoid X receptor subtype γ proteins” (Ligand Pharmaceuticals Incorporated, priority 1994, dated 1996).

By Kd is commonly meant the concentration at which binding is half-saturated. What is called IC50 is the concentration at which inhibition is half-maximal.

The target in data set [1] is retinoic acid receptors (RARs). The conditions noted are these: 9cRA and tRA bind with equally high affinity.
Data set [2] has as its target retinoid X receptors (RXRs). As to conditions: versus tritiated 9cRA.
In data set [3] the target is retinoid X receptors (RXRs).

As for `CC1=C(/C=C/C(C)=C/C=C/C(C)=C/C(=O)O)C(C)(C)CCC1` [tRA, all-trans retinoic acid], the Kd in data set [1] was 0.2 to 0.8 nM. Further, the IC50 in data set [2] was over 50 µM.

As to `CC1=C(/C=C/C(C)=C\C=C\C(C)=C\C(=O)O)C(C)(C)CCC1` [9cRA, 9-cis retinoic acid], the values for the Kd in data set [1] and in data set [3] were 0.2 to 0.8 nM and 1 to 2 nM, respectively.
